{"source": "patent US20100297102A1", "about": "“SEROTONIN 5-HT3A RECEPTORS IN TREATMENT OF NEUROLOGICAL AND PSYCHIATRIC DISORDERS” (priority 2006, published 2010)", "key": {"5-HT3 receptor": {"target": "T1, 5-HT3 receptor (Mus musculus, UniProt P23979)", "T1 sequence (P23979 24-489)": "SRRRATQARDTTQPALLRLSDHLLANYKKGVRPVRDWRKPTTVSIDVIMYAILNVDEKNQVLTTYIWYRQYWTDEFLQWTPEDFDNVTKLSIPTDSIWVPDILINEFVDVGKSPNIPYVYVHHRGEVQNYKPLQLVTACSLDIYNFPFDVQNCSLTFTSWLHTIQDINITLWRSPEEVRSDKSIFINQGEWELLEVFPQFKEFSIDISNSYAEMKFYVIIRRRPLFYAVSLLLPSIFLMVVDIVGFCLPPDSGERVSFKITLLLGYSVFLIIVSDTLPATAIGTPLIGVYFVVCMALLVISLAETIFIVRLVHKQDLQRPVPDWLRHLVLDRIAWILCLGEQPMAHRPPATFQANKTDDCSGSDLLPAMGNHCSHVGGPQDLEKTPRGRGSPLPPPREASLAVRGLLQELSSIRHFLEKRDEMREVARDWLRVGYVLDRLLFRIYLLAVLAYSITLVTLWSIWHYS", "experiment": "Whole-cell patch-clamp of 5-HT3 receptor-mediated inward current in EGFP-positive neurons/neuroblasts in acute slices", "assay_type": "cell-based, mice", "source_text": "We thus performed patch-clamp recordings from cells with the typical migratory morphology in the DMS using acute sagittal slices from transgenic animals (FIG. 3, A).\nSlice preparation and electrophysiology. 250-350 μm-thick parasagittal brain sections (for recordings in hippocampus, cortex, RMS and DMS) or coronal brain sections (for recordings in amygdala) were made from transgenic mice (P8-P42) using a vibratome (Leica VT1000S). Whole-cell voltage and current clamp recordings were made from visually identified, EGFPpositive neurons using and EPC9 amplifier (HEKA) and an upright microscope (Zeiss Axioskop FS2) equipped with IR-DIC and standard epifluorescence. […] Slices were continuously superfused with ACSF containing (in mM): 120 NaCl, 3.5 KCl, 2.5 CaCl2, 1.3 MgSO4, 1.25 NaH2PO4, 25 NaHCO3, 25 glucose. The presence of functional 5-HT3 receptors was assessed by application of 100 μM 5-HT (dissolved in ACSF) via pressure 12 ejection from a second pipette connected to a picospritzer. Cells were voltage clamped at −60 mV. Signals were filtered at 1-5 kHz, sampled at 2-10 kHz and off-line analysis was performed using Igor Pro (Wavemetrics)."}, "transgenic mice": {"test_system": "transgenic mice", "experiment": "Toxicity of BrdU injections in birthdating experiments", "assay_type": "in vivo", "procedure": "Birthdating analysis. Pregnant mice and P7 transgenic mice were injected intraperitoneally with 50 mg/kg or 300 mg/kg BrdU (Sigma) (body weight), sacrificed after 1 or 4 weeks and processed for immunostaining.\nFive BrdU injections (50 mg/kg, intraperitoneally) were administered every 2 hrs apart for 8 hours at E12.5, E14.5, E16.5 and P7 (FIG. 10). […] To avoid a cumulative effect, 5 pulses of BrdU (one pulse per day) were administered from P7 to P12. At P7 two treatments, one with 50 mg/kg and with 300 mg/kg of BrdU were carried."}, "[1]": {"details": "after intraperitoneal injection; cited from earlier work"}, "EGFP-positive cells": {"test_system": "EGFP-positive cells", "experiment": "Organotypic slice culture: migration/distribution of EGFP-positive neuroblasts", "assay_type": "cell-based, mice", "method": "The presence of functional 5-HT3 receptors on neuroblasts raised the question whether the receptor activation plays a role in the migration and maturation of GABAergic inhibitory neurons in postnatal life. To this end, studies were carried out in organotypic slices obtained from P3 transgenic mice (n=8) and cultured in vitro for 6 days. There were clear alterations in the cortical distribution of EGFP-positive cells in slices treated with the specific 5-HT3 antagonist tropisetron (1 μM) compared to corresponding untreated slices (FIGS. 4, A and B). The decrease in the number of EGFP-expressing cells in tropisetron-treated animals in cortex and hippocampus indicates a deficit in the migration of these cells, rather than cell death since the neuroblasts are still clearly visible in the stream. […] By P3 when slices were made, many EGFP-expressing cells have already reached their destination.\nOrganotypic slice culture experiments. Organotypic slice cultures were performed as previously described. After 6 days in culture, slices, control or treated with tropisetron (Sigma), were fixed for 1 hr in 4% PFA and processed for immunostaining using polyclonal rabbit anti-EGFP antibody. Cell counts were performed in pairs of matching tropisetron-treated and untreated slices. EGFP-positive cells were counted in deep, in superficial cortical layers and in stratum radiatum of the hippocampus within three standardized rectangular regions of 200×150 μm2 for each region. Data from control and treated slices were analyzed by Student's t test."}, "[2]": {"details": "tropisetron 1 μM, slices from P3 transgenic mice, 6 days in culture, n=8"}}, "data": [{"smiles": "NCCc1c[nH]c2ccc(O)cc12", "note": "[5-HT, 5-hydroxytryptamine]", "values": [{"measurement": "5-HT3 receptor-mediated inward current, average amplitude", "setting": "5-HT3 receptor; application of 5-HT (100 μM), mature/spiking neuroblasts in the DMS, 18 out of 22 responded", "value": "−46.0±10.5", "unit": "pA"}]}, {"smiles": "O=c1[nH]c(=O)n([C@H]2C[C@H](O)[C@@H](CO)O2)cc1Br", "note": "[BrdU]", "values": [{"measurement": "toxic effects", "setting": "transgenic mice; P16 mice after BrdU treatment, 50 mg/kg and 300 mg/kg i.p., dose-dependent", "value": "Hair loss and motor deficits"}, {"measurement": "EGFP-positive cell number in the granule cell layer and periglomerular cell layer of the OB", "setting": "transgenic mice; at P16, injected at P7 with 50 mg/kg BrdU, compared to untreated transgenic control mice (FIG. 10F)", "value": "Reduction"}, {"measurement": "EGFP-positive cell number in the granule cell layer and periglomerular cell layer of the OB", "setting": "transgenic mice; at P16, injected at P7 with 300 mg/kg BrdU, compared to untreated transgenic control mice (FIG. 10G)", "value": "Reduction"}, {"measurement": "number of EGFP-positive cells in the cortex, the RMS and OB", "setting": "transgenic mice; at P16 after postnatal treatment with BrdU", "value": "reduction"}, {"measurement": "persistence in the circulation", "setting": "[1]", "value": "less than a few hours"}]}, {"smiles": "CN1[C@@H]2CC[C@H]1C[C@@H](OC(=O)c1cc(Cl)cc(Cl)c1)C2", "note": "[MDL72222]", "values": [{"measurement": "block of 5-HT3 receptor-mediated inward current evoked by 100 μM 5-HT", "setting": "5-HT3 receptor; whole-cell voltage clamped EGFP-positive neurons, n=5 (FIG. 1B)", "value": "can be blocked"}]}, {"smiles": "CN1[C@@H]2CC[C@H]1C[C@@H](OC(=O)c1c[nH]c3ccccc13)C2", "note": "[tropisetron]", "values": [{"measurement": "cell density in the DMS", "setting": "EGFP-positive cells; slices from P3 transgenic mice treated with tropisetron, compared to control (FIG. 4)", "value": "increase in cell density in the DMS"}, {"measurement": "number of EGFP positive cells in hippocampus, of control levels", "setting": "EGFP-positive cells; tropisetron 100 nM, n=3", "value": 74.7, "unit": "%"}, {"measurement": "number of EGFP positive cells in superficial cortical layers, of control levels", "setting": "EGFP-positive cells; tropisetron 100 nM, n=3", "value": 81.1, "unit": "%"}, {"measurement": "number of EGFP positive cells in the deep cortex, of control levels", "setting": "EGFP-positive cells; tropisetron 100 nM, n=3", "value": 70.8, "unit": "%"}, {"measurement": "number of EGFP positive cells in deep cortical layers, of the control level", "setting": "EGFP-positive cells; [2]", "value": 68.4, "unit": "%"}, {"measurement": "number of EGFP positive cells in stratum radiatum of the hippocampus, of the control level", "setting": "EGFP-positive cells; [2]", "value": 72.6, "unit": "%"}, {"measurement": "number of EGFP positive cells in superficial layers, of the control level", "setting": "EGFP-positive cells; [2]", "value": 76.4, "unit": "%"}]}]}
